# Results reported in US5545625A, “Preventing conversion of citrulline to argininosuccinate to limit pathological nitric oxide overproduction” (The Medical College of Wisconsin Research Foundation, Inc., priority 1994, dated 1996).
# Experiments:
# [1] = test system: rat aortic smooth muscle cells; test: Nitrite production (indicator of cellular NO synthesis) by LPS/interferon-gamma induced rat aortic smooth muscle cells (Examples IV, V); assay type: cell-based; conditions: 24 hours, FIG. 4
# Protocol: Rat aortic smooth muscle cells were grown as described in Example I and were continuously treated with 30 μg/ml of bacterial lipopolysaccharide in combination with 50 ng/ml of interferongamma. Concentrations of mithramycin as indicated in FIG. 4 were added either simultaneously with immunostimulant (filled in circles in FIG. 4) or 4 hours later (open circles in FIG. 4).
# Nitrite was used as an indicator of cellular NO synthesis and assay was carried out as described in Gross, S. S., et al, J. Biol. Chem. 267, 25722-25729 (1992). In the assay, cells were treated with serum- and arginine-free RPMI 1640 medium containing the desired test agents for 24 hours. The accumulation of nitrite in the cell culture medium was quantified colorimetrically after adding 100 μl of Griess reagent (1% sulfanilamide and 0.1% naphthalene diamine in 5% o-phosphoric acid) to an equal volume of sample.
# Rat aortic smooth muscle cells were grown as described in Example I and were treated with 30 μg/ml of bacterial lipopolysaccharide in combination with 50 ng/ml of interferon-gamma. Concentrations of L-citrulline and L-arginine as indicated in FIG. 5 were added simultaneously with immunostimulant. Nitrite was used as an indicator of cellular NO synthesis and assay therefor was carried out as described in Example IV.
# Sprague-Dawley rats = test: Air pouch inflammatory model with croton oil (Examples XII, XVIII); assay type: in vivo, rat; conditions: mithramycin 25 μg/kg intraperitoneally, repeated at 24 hour intervals; end of 5 days; versus rats without drug
smiles,measurement,setting,value
COC(C(=O)C(O)C(C)O)C1Cc2cc3cc(OC4CC(OC5CC(O)C(O)C(C)O5)C(O)C(C)O4)c(C)c(O)c3c(O)c2C(=O)C1OC1CC(OC2CC(OC3CC(C)(O)C(O)C(C)O3)C(O)C(C)O2)C(O)C(C)O1 (stereo not shown) [mithramycin],nitrite accumulation in cell culture medium,[1]; mithramycin added 4 hours after immunostimulant,effectiveness to block NO production is markedly diminished
same,nitrite accumulation in cell culture medium,[1]; mithramycin added simultaneously with immunostimulant,inhibits induction of NO synthetic activity but is not a direct inhibitor of argininosuccinate synthetase or nitric oxide synthase
same,inflammation,Sprague-Dawley rats,less inflammation
same,nitrite in the fluid exudate of the lesion,Sprague-Dawley rats,significantly less nitrite
